How the values were obtained:
[1] = Variation of arrhythmogenic and lethal doses of CaCl2 in mice; type: in vivo, white mice
Method: Thus, the effect of the preparation according to the present invention has been studied relative to the variation of arrhythmogenic and lethal doses of calcium chloride. An experiment was carried out on white mice of both sexes weighing 19-28 g which were narcotized by urethane and an ECG was remetered in transthoracic lead. A 2% solution of calcium chloride was administered to the test animals into the tail vein at a constant rate (0.1 ml for 15 seconds). The average dose of calcium chloride causing the appearance of arrhythmia and heart arrest was determined. In the test groups, the studied compounds were administered 45, 60, 120, 180 and 240 minutes before the beginning of administration of calcium chloride (Table 1).
Variation of arrthythmogenic and lethal doses of CaCl2
with time after administration of the studied
pharmaceutical compositions in experiments on mice.

in vivo = assay: in vivo; design: species or system white mice; conditions: white mice
[2] = Aconitine arrhythmia in rats after repeated peroral administration; type: in vivo, white rats
Method: The antiarrhythmic activity was studied in experiments on white rats of both sexes with a mass of 190 to 230 g narcotized by urethane. An ECG was recorded for these animals. Into the femoral vein of the rats, aconitine was introduced at a constant rate and its arrhythmogenic and lethal doses were determined along with their variation under the protective effect of the preparation according to the present invention.

[3] = Variation of the arrhythmogenic dose of Strophanthin G in rabbits; type: in vivo
Method: The effect of the preparation according to the present invention on the variation of the arrhythmogenic dose of Strophanthin G was studied in experiments on rabbits of both sexes with a mass of […] administered with Strophanthin G at a dose of 60 μg/kg into the marginal auricular vein and, after every 5-10 minutes, at a dose of 5-10 μg/kg until the appearance of a stable ventricular extrasystole. In the test groups 20-30 minutes before administration of the glycoside a solution of 3-(2,2,2-trimethylhydrazinium)propionate was prophylactically administered intravenously. The ECG was recorded in II standard lead.
At a further increase of the dose to the preparation to the present invention, its protective effect was increased too.

[4] = Aconitine model of arrhythmia in white rats; type: in vivo
Method: For the comparison of preparations, as the criterion of the range of therapeutic effect, there was used the ratio of the half-lethal dose to the half-effective dose (LD50 /ED50) which was referred to as the antiarrhythmic index. […] The comparative study of the antiarrhythmic activity of pharmaceutical preparations using an acotine model of arrhythmia was effected in experiments on white rats weighing 190-240 g. The test preparations were administered intraperitoneally 10-40 minutes before administration of aconitine.

[5] = Arterial pressure, respiration and responses to biogenic amines in narcotized cats; type: in vivo
Method: The study of the preparation according to the present invention for arterial pressure, breathing and hemodynamic effects of norepinephrine, neoepinephrine, novoepinephrine, acetylcholine and histamine was carried out in experiments on cats with a mass of 2.8 to 4.0 kg narcotized by chlorase. There were then recorded the animals' arterial pressure, respiration and ECG on a physiograph produced by Narco Bio-Systems Co.

[6] = Vessel wall irritation and allergenic capacity; type: in vivo
[7] = Embryotoxic and teratogenic effects in rats; type: in vivo, white rats; conditions: up to 10,000 mg/kg perorally, any day of pregnancy
[8] = Storage stability of pharmaceutical preparations; type: physicochemical
[9] = Efficiency in extrasystolic arrhythmia in patients, intravenous; type: in vivo; conditions: 1 ml of a 40% solution intravenous; 7 patients
Method: The antianginal and antiarrhythmic effects of the preparation according to the present invention were evaluated with the use of the injection pharmaceutical form of the preparation administered intravenously in an amount of 0.2 to 0.4 g based on the active ingredient.
The preparation efficiency in the case of extrasystolic arrhythmia was studied on 7 patients.
The intravenous administration of the preparation (1 ml of a 40% solution) arrested the rhythm disorder for 5-20 minutes.

[10] = 10 mg/kg intraperitoneal, 60 minutes
[11] = 10 mg/kg intraperitoneal, 120 minutes
[12] = 10 mg/kg intraperitoneal, 180 minutes
[13] = 30 mg/kg intraperitoneal, 60 minutes
[14] = 30 mg/kg intraperitoneal, 180 minutes
[15] = 30 mg/kg intraperitoneal, 240 minutes

In the case of `C[N+](C)(C)NCCC(=O)[O-]` [3-(2,2,2-trimethylhydrazinium)propionate], the “Arrhythmogenic dose of CaCl2” value ([1]; 10 mg/kg intraperitoneal, 45 minutes before CaCl2, control 85) is reported as 91.5 mg/kg, the “Lethal dose of CaCl2” value ([1]; 10 mg/kg intraperitoneal, 45 minutes before CaCl2, control 100.9) is reported as 101.7 mg/kg and the “Arrhythmogenic dose of CaCl2” value [1, 10] is reported as 103.4 mg/kg. For the same compound, the “Lethal dose of CaCl2” value [1, 10] was 122.2 mg/kg, the “Arrhythmogenic dose of CaCl2” value [1, 11] was 111.9 mg/kg and the “Lethal dose of CaCl2” value [1, 11] was 130 mg/kg. For the same compound, the “Arrhythmogenic dose of CaCl2” value [1, 12] was 110.1 mg/kg, the “Lethal dose of CaCl2” value [1, 12] was 116 mg/kg and the “Arrhythmogenic dose of CaCl2” value [1, 13] was 106.7 mg/kg. The “Lethal dose of CaCl2” value [1, 13] was 122.8 mg/kg, the “Arrhythmogenic dose of CaCl2” value [1, 14] was 117.5 mg/kg and the “Lethal dose of CaCl2” value [1, 14] was 130.2 mg/kg. For the same compound, the “Arrhythmogenic dose of CaCl2” value [1, 15] was 121.9 mg/kg, the “Lethal dose of CaCl2” value [1, 15] was 128 mg/kg and the “Effect on arrhythmogenic and lethal doses of calcium chloride” value ([1]; single intraperitoneal administration) was “increases the arrhythmogenic and lethal doses of calcium chloride”. The LD50 (in vivo; mouse, in vivo, intravenous (Table 2)) was 4430 mg/kg, the “Acute toxicity, LD50” value (in vivo; intravenous (Table 5)) was 4,430 mg/kg and the “Aconitine dose variation, arrhythmogenic” value ([2]; 25 mg/kg perorally, 1 week) was 38.7%. The “Aconitine dose variation, lethal” value ([2]; 25 mg/kg perorally, 1 week) was 27.6%, the “Aconitine dose variation, arrhythmogenic” value ([2]; 25 mg/kg perorally, 2 weeks) was 42.26% and the “Aconitine dose variation, lethal” value ([2]; 25 mg/kg perorally, 2 weeks) was 24.7%. The “Aconitine dose variation, arrhythmogenic” value ([2]; 100 mg/kg perorally, 1 week) was 55.6%, the “Aconitine dose variation, lethal” value ([2]; 100 mg/kg perorally, 1 week) was 16.2% and the “Aconitine dose variation, arrhythmogenic” value ([2]; 100 mg/kg perorally, 2 weeks) was 34.6%. The “Aconitine dose variation, lethal” value ([2]; 100 mg/kg perorally, 2 weeks) was 9.7%, the “Protective effect against aconitine” value ([2]; peroral) was “pronounced protective effect” and the Duration of arrhythmia ([3]; 10 mg/kg intravenously, control 20 ± 10) was 12 ± 6 min. For the same compound, the “Arrhythmogenic dose of Strophanthin” value ([3]; 10 mg/kg intravenously, control 67 ± 9) was 0.09 ± 0.015 mg/kg, the “Arrhythmogenic dose of Strophanthin” value ([3]; 25 mg/kg intravenously) was 0.1 ± 0.01 mg/kg and the Duration of arrhythmia ([3]; 25 mg/kg intravenously) was 8 ± 5 min. For the same compound, the “Arrhythmogenic dose of Strophanthin” value ([3]; 50 mg/kg intravenously) was 0.106 ± 0.012 mg/kg, the Duration of arrhythmia ([3]; 50 mg/kg intravenously) was 15 ± 8 min and the ED50 ([4]; Rattus norvegicus, ip, read-out: ED50, aconitine arrhythmia in rats) was 12.5 ± 2.5 mg/kg. The “Antiarrhythmic index LD50/ED50, aconitine arrhythmia in rats” value ([4]; rat, in vivo) was 354, the “Change in arterial pressure, pulse frequency and respiration” value ([5]; 0.5 to 2.0 mg/kg intravenous) was “did not result in any essential change in arterial pressure, pulse frequency and respiration” and the “Level of responses to biogenic amines” value ([5]; 0.5 to 2.0 mg/kg intravenous) was “did not change changed the level of responses to biogenic amines”. The “Change in response to acetyl choline” value ([5]; 15-25 mg/kg) was 10-15%, the “Change in response to neoepinephrine” value ([5]; 15-25 mg/kg) was 5-10% and the “Increase of the response to histamine” value ([5]; 15-25 mg/kg) was 5-10%. For the same compound, the “Short-time reduction of arterial pressure” value ([5]; 15-25 mg/kg) was 5-20 mm Hg, the “Duration of increase of arterial pressure” value ([5]; 15-25 mg/kg, some cases) was 5 to 12 min and the “Increase of arterial pressure vs initial value” ([5]; 15-25 mg/kg, some cases) was 5-10 mm Hg. For the same compound, the “Blood pressure or response to biogenic amines” value ([5]; further increase of dose) was “did not cause changes in blood pressure or response to the administration of biogenic amines”, the “Irritation of vessel walls” value ([6]; intravenous) was “does not cause irritation of vessel walls” and the Allergic responses ([6]; intravenous and peroral, single or up to 30 days) was “nor does it cause allergic responses”. For the same compound, the “Embryotoxic or teratogenic effects” value [7] was “no embryotoxic or teratogenic effects”, the Stability in storage ([8]; +5° C.) was “stable in storage at a temperature of +5 °C for at least two years” and the “Stability of pharmaceutical forms for peroral administration” value ([8]; room temperature) was “stable for two years at room temperature”. The “Duration of arrest of the rhythm disorder” value [9] was 5 to 20 min.

Source: patent US4451485A, “Treatment of cardio-vascular diseases with 3-(2,2,2-trimethylhydrazinium) propionate dihydrate” (Institu Organicheskogo Sinteza Akademii Nauk Latviiskoi SSR, priority 1981, dated 1984)
